# Assay results from PMC4926125, “Evaluation of the Toxicity and Toxicokinetics of Cereulide from an Emetic Bacillus cereus Strain of Milk Origin” (Toxins, 2016).
# Read-outs that look alike come from different tables or passages of the source.
# Tests used:
# [1] = still active after heat treatment in food processing and passing through the intestinal tract; cited from earlier work
# Excerpt: B. cereus can be found in most common food matrices such as rice, pasta and dairy products, and it represents more than 68.0% of foodborne outbreaks in all food types. There is an increasing occurrence of B. cereus foodborne outbreaks. For example, B. cereus was responsible for 13.4% of bacterial foodborne outbreaks, ranking as the second among the most frequent bacterial causes of foodborne disease in Chinese inland provinces. In fact, the number of B. cereus contaminations is highly underestimated, because foodborne B. cereus disease is mild and self-limiting and is consequently ...
# [2] = Toxicokinetics of cereulide in rabbits after a single intravenous injection (plasma, UPLC-MS/MS); format: in vivo, New Zealand White rabbits; conditions: for MRT / Tmax: rabbit; for MRT: read-out: MRTlast, mean retention time until the last time point; for Tmax: read-out: Tmax, time to peak concentration
# Description: A total number of eight rabbits (half female and half male) were used to evaluate the toxicokinetics of cereulide after a single administration of 5 μg cereulide. All plasma samples at different time points were collected, and the concentrations of cereulide were quantified by UPLC-MS/MS assay. The dynamic curve of cereulide in the plasma of rabbits is shown in Figure 3a, and toxicokinetic parameters were calculated using a non-compartmental model as shown in Table 1. […] The concentration of cereulide dropped down until 1 h and rose thereafter. Following a short stationary phase from 4 h to 8 h, the concentration of cereulide decreased gradually. No cereulide could be detected 32 h later. Additionally, no cereulide was detected in the rabbits treated by 0.9% saline-methanol (10:90, v/v) based on our established UPLC-MS/MS method.
# (§1) This animal study was approved by the Institutional Animal Care and Use Committee at the China Agricultural University (SYXK (2012-0037), 28 December 2012), and all the operations were conducted according to the biosafety procedures. Eight adult New Zealand White rabbits (four female and four male) with weights of 2.0 ± 0.3 kg were used in this study. A single intravenous dose of 5 μg cereulide dissolved in 0.9% saline-methanol (10:90, v/v; the amount of methanol injected to rabbit was about 1.8 g/kg body weight) was administrated. Two other rabbits (one female and one male) were treated by 0.9% saline-methanol (10:90, v/v) as control. Blood samples were collected after injection at different time points 0, 0.2, 0.5, 1, 2, 3, 4, 5, 6, 8, 10, 12, 16, 20, 24, 28, 32 h. All samples were centrifuged at 4 °C, 2000 g for 10 min. Plasma from each sample was collected and stored at −80 °C.
# The plasma samples were thawed to room temperature before analysis. Then 200 μL of each sample was spiked with 10 ng/mL valinomycin (Sigma-Aldrich, St. Louis, MO, USA) as internal standards in a 1.5 mL tube (Axygen, Union City, CA, USA). The extraction steps were as below. First 1 mL acetonitrile (Fisher Scientific, Waltham, PA, USA) was added to each sample and vortexed for 3 min. After centrifugation at 13,000 g for 10 min, the supernatants were transferred into new tubes. The extraction steps were repeated once and the supernatants were combined. The supernatants were evaporated under a flow of nitrogen gas at 50 °C. The dry samples were reconstituted with 500 μL methanol and water with the ratio of 9:1 (v/v), vortexed for 3 min and filtered through 0.22 μm filter membrane (PALL, Port Washington, NY, USA) before UPLC-MS/MS analysis.
# The presence of cereulide was confirmed in all extracts and quantified by UPLC-MS/MS as described before. UPLC-MS/MS (Waters, Milford, MA, USA) equipped with a RP C18 column (50 mm × 2.1 mm, 1.7 μm, Acquity UPLC, Milford, MA, USA) was used. A gradient program was applied with the mobile phase consisting of solvent A (0.1% formic acid (Dikma, Lake Forest, CA, USA) in water) and solvent B (0.1% formic acid in acetonitrile) as follows: 98%–10% A (0–1 min), 10%–0% A (1–3 min), 0%–98% A (3–5 min). The flow rate was set at 0.3 mL/min with the injection volume of 10 μL. A positive electrospray ionization (ESI^+) mode was chosen to analyze the transitions of m/z 1170.9 → 1125.9 for cereulide and m/z 1128.8 → 1084.3 for valinomycin, by multiple reaction monitoring (MRM) method. The cone voltages for cereulide and valinomycin were 10 V and 60 V, and collision energy were 20 eV and 37 eV, respectively. All data were acquired and processed by software Masslynx 4.1 (Waters, Milford, MA, USA, 2005). The toxicokinetic parameters of cereulide were analyzed by the commercial pharmacokinetic program Phoenix WinNonlin 5.2.1 (Certara, Princeton, NJ, USA).
# [3] = tested on: aspartate aminotransferase (AST) in plasma; test: Liver damage in rabbits evaluated by plasma AST concentration (indirect EIA); format: in vivo, New Zealand White rabbits; conditions: mean ± SD, n = 8, control range 15.0 to 30.0 ng/mL
# Description: Liver damage in rabbits triggered by cereulide was evaluated by the concentration of aspartate aminotransferase (AST) in plasma. […] Liver function recovered, with the concentration of AST returning to the normal level 32 h after administration. In addition, the concentrations of AST in female rabbits were higher than those in males (Figure 3c), especially at the time point of 0.5 h (P = 0.0345).
# as §1, with “Blood samples were collected after injection at different time points 0, 0.2, 0.5, 1, 2, 3, 4, 5, 6, 8, 10, 12, 16, 20, 24, 28, 32 h. All samples were centrifuged at 4 °C, 2000 g for 10 min. Plasma from each sample was collected and stored at −80 °C.” left out
# Plasma samples at time points of 0.5, 6, 12, 24 and 32 h were evaluated concentrations of AST by indirect EIA according to the instruction (Beyotime Biotechnology, Beijing, China). […] Subsequently, the substrate was added with the absorbance at 450 nm.
# [4] = both sexes, New Zealand White, plasma, iv, 5 ug, single i.v. 5 μg cereulide/rabbit, plasma, UPLC-MS/MS, non-compartmental, n = 8, mean ± SD
# [5] = both sexes, New Zealand White, plasma, iv, 5 ug, single i.v. 5 μg cereulide/rabbit, plasma, UPLC-MS/MS, non-compartmental, n = 8, median
# [6] = single i.v. 5 μg cereulide/rabbit, plasma, UPLC-MS/MS (LOQ 1.5 ng/mL)
# [7] = single i.v. 5 μg cereulide/rabbit, plasma, UPLC-MS/MS, non-compartmental, n = 8, median
# [8] = single i.v. 5 μg cereulide/rabbit, plasma, UPLC-MS/MS, non-compartmental, n = 8, range
compound,measurement,setting,value
CC(C)C[C@H]1OC(=O)[C@H](C(C)C)NC(=O)[C@H](C(C)C)OC(=O)[C@@H](C)NC(=O)[C@@H](CC(C)C)OC(=O)[C@H](C(C)C)NC(=O)[C@H](C(C)C)OC(=O)[C@@H](C)NC(=O)[C@@H](CC(C)C)OC(=O)[C@H](C(C)C)NC(=O)[C@H](C(C)C)OC(=O)[C@@H](C)NC1=O [cereulide],stability to heat and proteolysis,[1],"heat-stable, proteolytically resistant"
same,AUC(0-t),"[2]; both sexes, New Zealand White, iv, 5 ug, single i.v. 5 μg cereulide/rabbit, plasma, UPLC-MS/MS, non-compartmental, n = 8, mean ± SD, read-out: AUC, area under the curve for the plasma concentration until the last time point",321 ± 240 ng·h/mL
same,AUC(0-inf),"[2]; both sexes, New Zealand White, iv, 5 ug, single i.v. 5 μg cereulide/rabbit, plasma, UPLC-MS/MS, non-compartmental, n = 8, mean ± SD, read-out: AUC∞, area under the curve until infinity",390 ± 258 ng·h/mL
same,clearance,"[2]; both sexes, New Zealand White, iv, 5 ug, single i.v. 5 μg cereulide/rabbit, plasma, UPLC-MS/MS, non-compartmental, n = 8, mean ± SD, read-out: Cl, clearance (converted)",0.318 mL/min
same,Cmax,"[2]; both sexes, New Zealand White, iv, 5 ug, single i.v. 5 μg cereulide/rabbit, plasma, UPLC-MS/MS, non-compartmental, n = 8, mean ± SD, read-out: Cmax, maximum concentration after intravenous administration",40.8 ± 21.6 ng/mL
same,half-life,"[2]; both sexes, New Zealand White, iv, 5 ug, single i.v. 5 μg cereulide/rabbit, plasma, UPLC-MS/MS, non-compartmental, n = 8, mean ± SD, read-out: HL_Lambda_z, elimination half-life (converted)",10.8 ± 9.1 h
same,Vd,"[2]; both sexes, New Zealand White, iv, 5 ug, single i.v. 5 μg cereulide/rabbit, plasma, UPLC-MS/MS, non-compartmental, n = 8, mean ± SD, read-out: Vd, volume of distribution",0.32 ± 0.4 L
same,MRT,[2]; [4],9.6 ± 2.9 h
same,Tmax,[2]; [4],2.6 ± 3.4 h
same,MRT,[2]; [5],10.6 h
same,Tmax,[2]; [5],0.2 h
same,"AUC, area under the curve for the plasma concentration until the last time point","[2]; single i.v. 5 μg cereulide/rabbit (ear vein), plasma 0-32 h, UPLC-MS/MS, non-compartmental model (WinNonlin), n = 8, median",309.3 ng·h/mL
same,time after which no cereulide could be detected in plasma,[2]; [6],32 h
same,time at which cereulide was detected in plasma after injection,[2]; [6],≤ 0.2 h
same,"Lambda_z, elimination rate constant","[2]; single i.v. 5 μg cereulide/rabbit, plasma, UPLC-MS/MS, non-compartmental, n = 8, mean ± SD",0.1 ± 0.1 h⁻¹
same,"AUC∞, area under the curve until infinity",[2]; [7],330.5 ng·h/mL
same,"Cl, clearance",[2]; [7],15.5 mL/h
same,"Cmax, maximum concentration after intravenous administration",[2]; [7],33.8 ng/mL
same,"HL_Lambda_z, elimination half-life",[2]; [7],6.9 h
same,"Lambda_z, elimination rate constant",[2]; [7],0.1 h⁻¹
same,"Vd, volume of distribution",[2]; [7],208.1 mL
same,"AUC, area under the curve for the plasma concentration until the last time point",[2]; [8],81.2 to 851.1 ng·h/mL
same,"AUC∞, area under the curve until infinity",[2]; [8],126.0 to 853.9 ng·h/mL
same,"Cl, clearance",[2]; [8],5.9 to 39.7 mL/h
same,"Cmax, maximum concentration after intravenous administration",[2]; [8],13.3 to 78.1 ng/mL
same,"HL_Lambda_z, elimination half-life",[2]; [8],1.9 to 24.5 h
same,"Lambda_z, elimination rate constant",[2]; [8],0.03 to 0.4 h⁻¹
same,"MRTlast, mean retention time until the last time point",[2]; [8],4.5 to 13.4 h
same,"Tmax, time to peak concentration",[2]; [8],0.2 to 8.0 h
same,"Vd, volume of distribution",[2]; [8],16.3 to 1254.5 mL
same,AST concentration in plasma,[3]; 0.5 h after single i.v. 5 μg cereulide,99.1 ± 32.2 ng/mL
same,AST concentration in plasma,[3]; 12 h after single i.v. 5 μg cereulide,97.3 ± 55.3 ng/mL
